Consider 14 compounds from patent publication US8822517B2, “Arylosulfonamides for the treatment of CNS diseases” (Adamed SP. Z O.O., priority 2010, dated 2014).

One assay deals with adrenergic α1 receptor. Put plainly: Binding assay α1 (non-selective), [3H]prazosin, rat cerebral cortex. As to conditions: percent inhibition of control specific binding; compounds tested at 1×10^−6 M. In short, it runs like this: (§1)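 Tested at 1×10^−6 M. Specific binding: total minus binding remaining with excess cold ligand. Detection: scintillation counting.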
The target in assay [1] is serotoninergic 5-HT7 receptor (Homo sapiens, UniProt P34969). The experiment in a line: Binding assay 5-HT7 (h), [3H]LSD, CHO cells. Also noted: expressed in transfected cells; host or cells: CHO cells. Particulars: read-out: 5-HT7. In short, it runs like this: as §1
Chain of serotoninergic 5-HT7 receptor (P34969 whole entry): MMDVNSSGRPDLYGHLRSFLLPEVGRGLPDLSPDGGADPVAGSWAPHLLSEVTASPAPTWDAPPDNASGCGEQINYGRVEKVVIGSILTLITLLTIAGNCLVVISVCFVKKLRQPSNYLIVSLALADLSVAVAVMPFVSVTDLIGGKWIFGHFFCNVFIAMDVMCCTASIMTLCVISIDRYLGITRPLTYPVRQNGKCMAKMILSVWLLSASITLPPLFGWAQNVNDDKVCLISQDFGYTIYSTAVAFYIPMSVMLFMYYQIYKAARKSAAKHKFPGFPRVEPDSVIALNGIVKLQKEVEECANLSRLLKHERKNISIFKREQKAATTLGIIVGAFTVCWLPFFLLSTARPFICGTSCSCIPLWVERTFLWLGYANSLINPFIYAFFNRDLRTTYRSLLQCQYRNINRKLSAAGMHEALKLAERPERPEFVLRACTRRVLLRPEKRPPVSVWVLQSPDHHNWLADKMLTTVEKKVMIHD
For the next assay, the target named is dopaminergic D3 receptor (Homo sapiens, UniProt P35462). Put plainly: Binding assay D3 (h), [3H]methyl-spiperone, CHO cells. Also noted: expressed in transfected cells; host or cells: CHO cells. Particulars: read-out: D3 [%]. In short, it runs like this: as §1
Chain of dopaminergic D3 receptor (P35462 whole entry): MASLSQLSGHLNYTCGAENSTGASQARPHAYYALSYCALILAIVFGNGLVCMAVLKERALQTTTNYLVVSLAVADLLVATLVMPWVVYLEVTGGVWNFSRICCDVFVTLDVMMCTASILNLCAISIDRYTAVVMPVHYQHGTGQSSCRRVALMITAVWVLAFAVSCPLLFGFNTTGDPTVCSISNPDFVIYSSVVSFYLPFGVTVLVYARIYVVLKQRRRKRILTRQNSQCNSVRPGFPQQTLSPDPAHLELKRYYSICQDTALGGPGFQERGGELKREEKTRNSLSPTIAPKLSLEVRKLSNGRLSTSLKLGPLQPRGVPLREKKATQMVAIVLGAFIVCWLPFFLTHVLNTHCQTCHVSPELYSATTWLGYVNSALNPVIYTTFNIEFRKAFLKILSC
For assay [2], the target named is serotoninergic 5-HT2A receptor (Homo sapiens, UniProt P28223). The experiment in a line: Binding assay 5-HT2A (h), [3H]ketanserin, HEK-293 cells. Also noted: expressed in transfected cells; host or cells: HEK-293 cells. As to conditions: read-out: 5-HT2A. The essentials:
as §1

A further assay has as its target dopaminergic D2 receptor (Homo sapiens, UniProt P14416). Put plainly: Binding assay D2S (h), [3H]methyl-spiperone, HEK-293 cells. More on the design: expressed in transfected cells; host or cells: HEK-293 cells. Particulars: read-out: D2 [%]. In short, it runs like this:
as §1

In assay [3] the target is serotoninergic 5-HT6 receptor (Homo sapiens, UniProt P50406). The experiment in a line: Binding assay 5-HT6 (h), [3H]LSD, CHO cells. As to conditions: read-out: 5-HT6. Also noted: expressed in transfected cells; host or cells: CHO cells. The essentials:
as §1

Assay [4] concerns the target T1, serotonine transporter (SERT) receptor (Homo sapiens, UniProt P31645).
T1 construct: expressed in transfected cells; host or cells: CHO cells
Put plainly: Binding assay SERT (h), [3H]imipramine, CHO cells. As to conditions: read-out: SERT [%]. The essentials: as §1

Assay [5] deals with T2, serotoninergic 5-HT1A receptor (Homo sapiens, UniProt P08908).
T2 sequence (P08908 1-422): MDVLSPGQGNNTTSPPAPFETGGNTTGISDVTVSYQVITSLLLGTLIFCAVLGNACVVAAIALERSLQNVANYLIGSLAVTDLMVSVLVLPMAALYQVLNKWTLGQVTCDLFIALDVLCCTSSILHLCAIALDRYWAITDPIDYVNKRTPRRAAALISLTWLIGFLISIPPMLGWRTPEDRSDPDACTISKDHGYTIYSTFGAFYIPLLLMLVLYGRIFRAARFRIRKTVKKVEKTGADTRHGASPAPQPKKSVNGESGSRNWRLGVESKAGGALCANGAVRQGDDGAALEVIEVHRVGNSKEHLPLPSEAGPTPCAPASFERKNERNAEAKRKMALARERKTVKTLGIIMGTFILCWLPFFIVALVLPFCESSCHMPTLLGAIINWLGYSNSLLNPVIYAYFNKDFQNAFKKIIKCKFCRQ
The experiment in a line: Binding assay 5-HT1A (h), [3H]8-OH-DPAT, HEK-293 cells. As to conditions: read-out: 5-HT1A. More on the design: expressed in transfected cells; host or cells: HEK-293 cells. In short, it runs like this: as §1

Chain of serotoninergic 5-HT6 receptor (P50406 whole entry): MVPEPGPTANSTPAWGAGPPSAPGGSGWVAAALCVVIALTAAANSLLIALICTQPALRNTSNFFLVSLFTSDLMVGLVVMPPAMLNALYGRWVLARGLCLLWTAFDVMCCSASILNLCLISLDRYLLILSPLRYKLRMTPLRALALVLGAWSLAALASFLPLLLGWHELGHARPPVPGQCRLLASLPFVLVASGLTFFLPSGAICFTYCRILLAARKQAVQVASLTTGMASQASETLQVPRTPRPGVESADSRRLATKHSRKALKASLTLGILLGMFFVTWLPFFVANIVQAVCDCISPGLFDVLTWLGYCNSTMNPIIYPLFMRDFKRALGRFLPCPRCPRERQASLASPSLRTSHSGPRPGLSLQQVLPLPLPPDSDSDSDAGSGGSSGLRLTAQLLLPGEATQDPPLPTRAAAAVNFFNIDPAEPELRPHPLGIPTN
Chain of dopaminergic D2 receptor (P14416 1-414 isoform P14416-2): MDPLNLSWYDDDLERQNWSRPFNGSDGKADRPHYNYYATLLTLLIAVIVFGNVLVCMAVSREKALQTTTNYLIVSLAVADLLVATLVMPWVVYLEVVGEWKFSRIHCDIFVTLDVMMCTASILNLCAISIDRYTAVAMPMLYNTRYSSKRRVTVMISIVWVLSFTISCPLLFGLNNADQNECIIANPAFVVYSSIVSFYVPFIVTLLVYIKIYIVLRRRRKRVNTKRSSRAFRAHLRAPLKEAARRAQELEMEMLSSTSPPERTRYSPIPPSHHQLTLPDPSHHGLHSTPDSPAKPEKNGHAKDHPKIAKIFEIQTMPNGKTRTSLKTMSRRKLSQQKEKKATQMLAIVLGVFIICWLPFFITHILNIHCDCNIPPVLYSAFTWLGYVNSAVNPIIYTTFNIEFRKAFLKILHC
T1 sequence (P31645 whole entry): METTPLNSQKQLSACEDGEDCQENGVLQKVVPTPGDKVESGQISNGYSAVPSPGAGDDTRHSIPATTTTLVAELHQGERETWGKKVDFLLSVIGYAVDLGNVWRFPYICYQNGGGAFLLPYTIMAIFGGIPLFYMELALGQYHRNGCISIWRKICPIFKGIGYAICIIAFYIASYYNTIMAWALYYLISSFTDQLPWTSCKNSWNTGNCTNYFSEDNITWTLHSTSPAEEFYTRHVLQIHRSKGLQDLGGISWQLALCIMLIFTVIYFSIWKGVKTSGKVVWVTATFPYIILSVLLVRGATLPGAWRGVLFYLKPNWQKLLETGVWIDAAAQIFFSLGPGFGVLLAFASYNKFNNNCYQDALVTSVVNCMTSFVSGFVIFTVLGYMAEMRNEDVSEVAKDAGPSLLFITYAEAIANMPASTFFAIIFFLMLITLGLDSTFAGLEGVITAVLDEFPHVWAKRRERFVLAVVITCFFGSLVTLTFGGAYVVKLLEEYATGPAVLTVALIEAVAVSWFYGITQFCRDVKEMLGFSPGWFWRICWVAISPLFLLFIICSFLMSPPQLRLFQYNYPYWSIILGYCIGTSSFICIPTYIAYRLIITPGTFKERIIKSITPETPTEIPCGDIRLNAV
Chain of serotoninergic 5-HT2A receptor (P28223 whole entry): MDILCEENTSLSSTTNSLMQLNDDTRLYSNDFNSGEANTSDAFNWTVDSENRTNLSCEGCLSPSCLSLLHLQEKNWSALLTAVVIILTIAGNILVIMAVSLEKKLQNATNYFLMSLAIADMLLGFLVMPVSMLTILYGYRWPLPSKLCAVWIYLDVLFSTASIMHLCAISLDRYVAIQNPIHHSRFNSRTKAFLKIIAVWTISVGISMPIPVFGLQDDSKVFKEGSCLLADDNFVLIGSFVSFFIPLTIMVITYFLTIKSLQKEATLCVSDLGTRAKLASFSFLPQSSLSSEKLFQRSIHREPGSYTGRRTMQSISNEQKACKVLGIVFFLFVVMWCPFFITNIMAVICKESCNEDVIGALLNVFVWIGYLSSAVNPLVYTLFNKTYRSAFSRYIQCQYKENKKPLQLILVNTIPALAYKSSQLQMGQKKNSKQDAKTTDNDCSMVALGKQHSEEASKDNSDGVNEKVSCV

In the case of `O=C1COc2c(cccc2N2CCN(CCCCNS(=O)(=O)c3ccc(C(F)(F)F)cc3)CC2)N1` [Compound 429, N-[4-[4-(3-oxo-4H-1,4-benzoxazin-8-yl)piperazin-1-yl]butyl]-4-(trifluoromethyl)benzenesulphonamide], in the assay on adrenergic α1 receptor, the “α1 [%]” value came out at 78%. In addition, the inhibition at 1 µM in assay [1] is 83%; at dopaminergic D3 receptor it was 104%; in assay [2], 35%; at dopaminergic D2 receptor, 61%; in assay [3], -57%; in assay [4] it was 22%. Moreover, in assay [5], the inhibition at 1 µM amounted to 88%.
For the compound `COc1cccc(S(=O)(=O)NCCCCN2CCN(c3nsc4ccccc34)CC2)c1` [Compound 232, N-[4-[4-(1,2-Benzothiazol-3-yl)piperazin-1-yl]butyl]-3-methoxybenzenesulphonamide], in the assay with adrenergic α1 receptor, the “α1 [%]” value stood at 94%. Besides, the inhibition at 1 µM in assay [1] stood at 89%; at dopaminergic D3 receptor it was 89%; in assay [2] it was 100%; on dopaminergic D2 receptor, 92%; in assay [3], 76%; in assay [4] it was 13%. The inhibition at 1 µM in assay [5] stood at 89%.
As for `Cn1ccc2cc(S(=O)(=O)NCCCN3CCC(c4noc5cc(F)ccc45)CC3)ccc21` [Compound 344, N-[3-[4-(6-Fluoro-1,2-benzoxazol-3-yl)piperidin-1-yl]propyl]-1-methyl-indole-5-sulphonamide], the “α1 [%]” value with adrenergic α1 receptor is reported as 106%. The inhibition at 1 µM in assay [1] came out at 95%; on dopaminergic D3 receptor, 101%; in assay [2] it was 105%; at dopaminergic D2 receptor, 107%; in assay [3], 91%; in assay [4], 31%. Also, the inhibition at 1 µM in assay [5] came out at 42%.
`O=S(=O)(NCCCN1CCN(c2nsc3ccccc23)CC1)c1cccc(F)c1` [Compound 72, N-[3-[4-(1,2-Benzothiazol-3-yl)piperazin-1-yl]propyl]-3-fluorobenzenesulphonamide]: in the assay with adrenergic α1 receptor, the “α1 [%]” value came out at 93%. Moreover, the inhibition at 1 µM in assay [1] is 101%; at dopaminergic D3 receptor it was 95%; in assay [2], 94%; at dopaminergic D2 receptor it was 99%; in assay [3], 78%; in assay [4] it was 44%. The inhibition at 1 µM in assay [5] turned out to be 95%.
Turning to `O=S(=O)(NCCCCN1CCC(c2noc3cc(F)ccc23)CC1)c1ccc(Cl)cc1` [Compound 296, 4-Chloro-N-[4-[4-(6-fluoro-1,2-benzoxazol-3-yl)piperidin-1-yl]butyl]benzenesulphonamide], the “α1 [%]” value in the assay with adrenergic α1 receptor worked out at 101%. Further, the inhibition at 1 µM worked out at 91% in assay [1]; 100% at dopaminergic D3 receptor; 93% in assay [2]; 105% on dopaminergic D2 receptor; 83% in assay [3]; 49% in assay [4]. In addition, the inhibition at 1 µM in assay [5] stood at 34%.
With `O=S(=O)(NCCCCN1CCN(c2nsc3ccccc23)CC1)c1cccc(F)c1` [Compound 71, N-[4-[4-(1,2-Benzothiazol-3-yl)piperazin-1-yl]butyl]-3-fluorobenzenesulphonamide], in the assay on adrenergic α1 receptor, the “α1 [%]” value is recorded as 99%. In addition, the inhibition at 1 µM was found to be 99% in assay [1]; 91% at dopaminergic D3 receptor; 94% in assay [2]; 103% on dopaminergic D2 receptor; 76% in assay [3]; 41% in assay [4]. Moreover, the inhibition at 1 µM in assay [5] was found to be 89%.
`N#Cc1cccc(S(=O)(=O)NCCCCN2CCN(c3cccc4[nH]ccc34)CC2)c1` [Compound 362, 3-Cyano-N-[4-[4-(1H-indol-4-yl)piperazin-1-yl]butyl]benzenesulphonamide]: the “α1 [%]” value with adrenergic α1 receptor is listed as 96%. Moreover, the inhibition at 1 µM is 88% in assay [1]; 102% at dopaminergic D3 receptor; 41% in assay [2]; 101% at dopaminergic D2 receptor; 69% in assay [3]; 37% in assay [4]. Also, the inhibition at 1 µM in assay [5] is 91%.
As to `O=S(=O)(NCCCCN1CCN(c2cccc3c2OCCO3)CC1)c1cccc2ccccc12` [Compound 385, N-[4-[4-(2,3-Dihydro-1,4-benzodioxin-5-yl)piperazin-1-yl]butyl]naphthalene-1-sulphonamide], the “α1 [%]” value with adrenergic α1 receptor came out at 96%. Besides, the inhibition at 1 µM worked out at 99% in assay [1]; 89% on dopaminergic D3 receptor; 77% in assay [2]; 75% on dopaminergic D2 receptor; 10% in assay [3]; 6% in assay [4]. Also, the inhibition at 1 µM in assay [5] was 103%.
As for `O=S(=O)(NCCCCN1CCN(c2noc3ccccc23)CC1)c1cccc(F)c1` [Compound 87, N-[4-[4-(1,2-Benzoxazol-3-yl)piperazin-1-yl]butyl]-3-fluorobenzenesulphonamide], in the assay with adrenergic α1 receptor, the “α1 [%]” value is recorded as 98%. The inhibition at 1 µM in assay [1] stood at 90%; on dopaminergic D3 receptor, 77%; in assay [2] it was 89%; at dopaminergic D2 receptor it was 87%; in assay [3], 67%; in assay [4] it was 2%. For the same compound, the inhibition at 1 µM in assay [5] was 41%.
With `O=c1[nH]c2ccc(S(=O)(=O)NCCCCN3CCN(c4cccc5c4OCCO5)CC3)cc2o1` [Compound 403, N-[4-[4-(2,3-Dihydro-1,4-benzodioxin-5-yl)piperazin-1-yl]butyl]-2-oxo-3H-1,3-benzoxazole-6-sulphonamide], in the assay on adrenergic α1 receptor, the “α1 [%]” value was found to be 98%. The inhibition at 1 µM in assay [1] was 95%; on dopaminergic D3 receptor, 99%; in assay [2], 64%; at dopaminergic D2 receptor, 85%; in assay [3] it was -21%; in assay [4] it was -9%. The inhibition at 1 µM in assay [5] was 98%.
As to `O=S(=O)(NCCCCN1CCC(c2noc3cc(F)ccc23)CC1)c1ccc(OC(F)(F)F)cc1` [Compound 304, N-[4-[4-(6-Fluoro-1,2-benzoxazol-3-yl)piperidin-1-yl]butyl]-4-(trifluoromethoxy)-benzenesulphonamide], the “α1 [%]” value with adrenergic α1 receptor is on record as 101%. Further, the inhibition at 1 µM in assay [1] is 93%; on dopaminergic D3 receptor it was 87%; in assay [2], 76%; at dopaminergic D2 receptor it was 94%; in assay [3], 78%; in assay [4] it was 4%. In assay [5], the inhibition at 1 µM came out at 60%.
As to `O=S(=O)(NCCCCN1CCN(c2noc3ccccc23)CC1)c1ccc(Br)cc1` [Compound 274, N-[4-[4-(1,2-Benzoxazol-3-yl)piperazin-1-yl]butyl]-4-bromobenzenesulphonamide], in the assay with adrenergic α1 receptor, the “α1 [%]” value stood at 99%. The inhibition at 1 µM was 83% in assay [1]; 91% on dopaminergic D3 receptor; 97% in assay [2]; 96% at dopaminergic D2 receptor; 81% in assay [3]; 30% in assay [4]. Further, in assay [5], the inhibition at 1 µM was found to be 73%.
Consider `CC(C)(C)c1ccc(S(=O)(=O)NCCCCN2CCN(c3nsc4ccccc34)CC2)cc1` [Compound 233, N-[4-[4-(1,2-Benzothiazol-3-yl)piperazin-1-yl]butyl]-4-tert-butyl-benzenesulphonamide], for which the “α1 [%]” value in the assay with adrenergic α1 receptor came out at 94%. In addition, the inhibition at 1 µM in assay [1] is 93%; on dopaminergic D3 receptor, 76%; in assay [2] it was 100%; on dopaminergic D2 receptor it was 83%; in assay [3], 76%; in assay [4] it was 5%. Moreover, the inhibition at 1 µM in assay [5] turned out to be 53%.
Take `Cn1ccc2c(S(=O)(=O)NCCCN3CCC(c4noc5cc(F)ccc45)CC3)cccc21` [Compound 343, N-[3-[4-(6-Fluoro-1,2-benzoxazol-3-yl)piperidin-1-yl]propyl]-1-methyl-indole-4-sulphonamide]: the “α1 [%]” value with adrenergic α1 receptor is 86%. For the same compound, the inhibition at 1 µM in assay [1] came to 92%; on dopaminergic D3 receptor it was 96%; in assay [2], 105%; at dopaminergic D2 receptor, 101%; in assay [3], 77%; in assay [4], 4%. For the same compound, the inhibition at 1 µM in assay [5] is 32%.
